Consider 6 compounds from publication PMC10947197, “Acid‐Resistant BODIPY Amino Acids for Peptide‐Based Fluorescence Imaging of GPR54 Receptors in Pancreatic Islets” (Angewandte Chemie (International Ed. in English), 2023).

pEC50: −log10 of the molar value. Numbered stars: 1 amine (or outer) side, 2 acyl side, 3 side chain; on linkers, the order of the positions; unused ones are H or OH. Square brackets hold non-standard residues; d marks the D form. Peptide text beside a SMILES is read from it. X1 = CC1=CC(C)=[N+]2C1=C(c1cccc(-c3[nH]c4ccccc4c3C[C@H](N[*:1])C(=O)[*:2])c1)c1c(C)cc(C)n1[B-]2(C#N)C#N A value given as a limit tells only on which side of the number the result lay.

One data set concerns apoptotic cells. The conditions noted are these: ref [10e]; cited from earlier work. An excerpt:
Next, we assessed whether incorporation of Trp‐BODIPY PLUS enabled retention of the molecular recognition features of bioactive peptides. […] Because Apo‐15 contains one Trp‐BODIPY residue within its sequence, we synthesized the corresponding analogue using Trp‐BODIPY PLUS as the FlAA.

The next data set addresses T1, hGPR54 (Homo sapiens, UniProt Q969F8).
T1 construct: expressed in transfected cells
Nature of the data set: Calcium mobilization assay in HEK293 cells stably expressing hGPR54. The class given is cell-based. To be noted: HEK293 cells stably expressing hGPR54, 50,000 cells per well, Fluo4 NW Ca2+ assay kit, GraphPad Prism 9 sigmoidal fit; read-out: EC50 (Ca2+ influx, agonist). (A change in cytosolic calcium serves as a functional read-out for many receptors and channels.)

The nature of data set [1]: Integrity of BODIPY core in crude peptides after cleavage with 95% TFA (HPLC-MS). The class given is physicochemical. To be noted: crude peptide. An excerpt:
To study the application of Trp‐BODIPY PLUS for SPPS of fluorogenic peptides, we first prepared analogues of the model linear sequence KYRAE, which contains a range of non‐polar, positively‐charged and negatively‐charged residues with different PGs (e.g., Boc, tBu, Pbf). We performed the synthesis using standard Fmoc/tBu SPPS conditions (e.g., OxymaPure and 1‐ cyano‐2‐ethoxy‐2‐oxoethylidenaminooxy)dimethylamino‐mor‐pholino‐carbenium hexafluorophosphate (COMU) for couplings, piperidine:DMF (2 : 8) for Fmoc removal) and introduced Trp‐BODIPY PLUS at the N‐terminal end. We performed the cleavage of the labeled peptide (i.e., W(BODIPYplus)KYRAE, peptide 4, Figure 1) with 95 % TFA and compared the purity of the crude to that obtained when using the acid‐labile Trp‐BODIPY (i.e., W(BODIPY)KYRAE, peptide 5, Figure 1). […] Overall, we isolated the model peptide 4 in good yields >20 % and >95 % purity after HPLC purification (see Supporting Information for synthetic and characterization details).

Data set [2] is described as follows: Stability analysis of Trp-BODIPY FlAAs under SPPS conditions.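 For all read-outs here: chemical integrity of the BODIPY-labelled tryptophan amino acids checked after exposure to reagents used in solid-phase peptide synthesis.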 To be noted: r.t.; for Stability (purity by HPLC-MS): 70 μM; for Chemical stability (HPLC-MS): 70 µM.
Experimental: Next, we studied the stability of Trp‐BODIPY PLUS in TFA and compared it to that of Trp‐BODIPY (Table 2).
Analysis of t he chemical st abilit y of T rp-BO DI PY and T rp-
BODIPY PLUS under conve nt ion al SPPS condit i ons. Amino aci ds were di lut ed w it h
dif f erent rea gent mixt ur es (70 µ M , f inal v olum e 10 0 uL) a nd st irre d at r. t . f or 1 h
( c ondit i ons A-B and E-H) or 5 m i n ( c o ndit i ons C an d D).
Fmoc-T rp -BO DI PY(X)2-OH
En t ry Conditions X = F X = CN

T1 sequence (Q969F8 whole entry): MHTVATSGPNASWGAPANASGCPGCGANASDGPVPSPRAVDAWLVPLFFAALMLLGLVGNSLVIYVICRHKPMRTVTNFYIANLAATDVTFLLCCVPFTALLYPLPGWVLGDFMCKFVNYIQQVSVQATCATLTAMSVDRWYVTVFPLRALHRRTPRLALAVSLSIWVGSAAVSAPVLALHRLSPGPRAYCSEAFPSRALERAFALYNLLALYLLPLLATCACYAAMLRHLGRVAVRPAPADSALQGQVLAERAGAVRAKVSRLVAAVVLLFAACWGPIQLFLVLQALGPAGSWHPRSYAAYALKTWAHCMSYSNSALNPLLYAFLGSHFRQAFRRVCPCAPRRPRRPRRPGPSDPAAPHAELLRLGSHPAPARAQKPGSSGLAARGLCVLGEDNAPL

Take “cyclo(GRKKWFW(BODIPY)) (head to tail) [Apo-15]”: in the data set with apoptotic cells, the “Ca2+ dependence of apoptotic cell labelling (in words)” value is recorded as “independent on the concentration of Ca^2+ ions” and the “Selective labelling of apoptotic cells (in words)” value is recorded as “fluorogenic probe for selective labeling of apoptotic cells”.
By pEC50 is commonly meant the negative decadic logarithm of the EC50, by convention in mol/L. Consider `CC1=CC(C)=[N+]2C1=C(c1cccc(-c3[nH]c4ccccc4c3C[C@H](NC(=O)[C@H](CC(N)=O)NC(=O)[C@@H](N)Cc3ccc(O)cc3)C(=O)N[C@@H](CC(N)=O)C(=O)N[C@@H](CO)C(=O)N[C@@H](Cc3ccccc3)C(=O)NCC(=O)N[C@@H](CC(C)C)C(=O)N[C@@H](CCCNC(=N)N)C(=O)N[C@@H](Cc3ccccc3)C(N)=O)c1)c1c(C)cc(C)n1[B-]2(C#N)C#N` [peptide 7] (H-YN[X1]NSFGLRF-NH2), for which the pEC50 at hGPR54 was 8.60.
On to “W(BODIPYplus)KYRAE [peptide 4, model linear peptide KYRAE with Trp-BODIPY PLUS at the N-terminal end]”, for which, in data set [1], the “Stability of BODIPY core after cleavage (in words)” value was “remained fully stable”.
As for `CC1=CC(C)=[N+]2C1=C(c1cccc(-c3[nH]c4ccccc4c3C[C@H](NC(=O)OCC3c4ccccc4-c4ccccc43)C(=O)O)c1)c1c(C)cc(C)n1[B-]2(F)F` [Trp-BODIPY, reference compound], the “Stability (purity by HPLC-MS)” value in data set [2] (2% N2H4 in DMF, 60 min) is above 95%; in data set [2] (95% TFA, 2.5% DTT, 60 min, DCM) it was below 5%; in data set [2] (95% TFA, 2.5% H2O, 60 min, DCM), below 5%; in data set [2] (95% TFA, 2.5% TIS, 60 min, DCM), below 5%; in data set [2] (95% TFA, 5 min, DCM), below 5%; in data set [2] (95% TFA, 60 min, DCM) it was below 5%. Further, the “Stability (purity by HPLC-MS)” value is reported as 38% in data set [2] (I2 (5 eq) in MeOH, 60 min); above 95% in data set [2] (Pd(PPh3)4 (0.1 eq), PhSiH3 (10 eq), 60 min, DCM); above 95% in data set [2] (TBAF (3 eq), 60 min, DCM). The “Chemical stability (HPLC-MS)” value in data set [2] (Supplementary Table 2 entry A: 1% TFA, 2.5% DTT, 1 h) was above 95%; in data set [2] (Supplementary Table 2 entry B: 5% TFA, 2.5% DTT, 1 h), 34%; in data set [2] (Supplementary Table 2 entry C: 95% TFA, 2.5% DTT, 5 min), 7%; in data set [2] (Supplementary Table 2 entry D: 20% piperidine: DMF, 5 min), above 95%; in data set [2] (Supplementary Table 2 entry E: 5% NaHCO3 (aq), 1 h) it was above 95%; in data set [2] (Supplementary Table 2 entry F: 5% Na2CO3 (aq), 1 h), above 95%. The “Chemical stability (HPLC-MS)” value in data set [2] (Supplementary Table 2 entry G: 1% DIPEA: DMF, 1 h) is above 95%; in data set [2] (Supplementary Table 2 entry H: 0.1 M HOBt: TFE, 1 h) it was above 95%.
Regarding `CC(C)C[C@H](NC(=O)CNC(=O)[C@H](Cc1ccccc1)NC(=O)[C@H](CO)NC(=O)[C@H](CC(N)=O)NC(=O)[C@H](Cc1c[nH]c2ccccc12)NC(=O)[C@H](CC(N)=O)NC(=O)[C@@H](N)Cc1ccc(O)cc1)C(=O)N[C@@H](CCCNC(=N)N)C(=O)N[C@@H](Cc1ccccc1)C(N)=O` [KP-10, reference compound], on hGPR54, the pEC50 is 9.66.
As to “W(BODIPY)KYRAE [peptide 5, model linear peptide KYRAE with acid-labile Trp-BODIPY at the N-terminal end]”, the “Stability of BODIPY core after cleavage (in words)” value in data set [1] is “completely degraded”.
